Laboratory results published in US20190209650A1, “METHOD TO IMPROVE THE EFFECTIVENESS OF ANTI-CANCER THERAPIES BY EXPOSING CANCER CELLS TO AN INFLAMMATORY STIMULUS PRIOR TO TREATMENT” (priority 2016, published 2019).

System: SW620 colorectal cancer cell line
Test: Flow cytometry of EpCAM positive cells and cancer stem cell (CD44+CD133-) subpopulation after incubation with cytokines
Format: cell-based, human
Details: for % Gated, R4 (CD44FITC, CD133 PE) / % Total, R4 (CD44FITC, CD133 PE): population R4 & R14 & R2 & R1; for % Gated, R5 (CD44FITC, CD133 PE) / % Total, R5 (CD44FITC, CD133 PE): population R5 & R14 & R2 & R1; for % Gated, R6 (CD44FITC, CD133 PE) / % Total, R6 (CD44FITC, CD133 PE): population R6 & R14 & R2 & R1; for % Gated, R7 Cancer Stem Cell (CSC) (CD44+CD133-) / % Total, R7 Cancer Stem Cell (CSC) (CD44+CD133-): population R7 & R14 & R2 & R1; for % Gated, R8 (CD44FITC, EpCAMefluor710) / % Total, R8 (CD44FITC, EpCAMefluor710): population R8 & R14 & R2 & R1; for % Gated, R9 EpCAM positive Cells (CD44FITC, EpCAMefluor710) / % Total, R9 EpCAM positive Cells (CD44FITC, EpCAMefluor710): population R9 & R14 & R2 & R1; for % Gated, R10 EpCAM positive Cells (CD44FITC, EpCAMefluor710) / % Total, R10 EpCAM positive Cells (CD44FITC, EpCAMefluor710): population R10 & R14 & R2 & R1; for % Gated, R11 (CD44FITC, EpCAMefluor710) / % Total, R11 (CD44FITC, EpCAMefluor710): population R11 & R14 & R2 & R1
Protocol: This number returned to near baseline 21% at 48 hours. […] This change was transient, occurring within 24 hours and rapidly returning to baseline.
The data from the scatter plots of FIGS. 1A-1H, 2A-2H, and 3A-3H are reproduced below in Tables 1-3.
Based on the above data of potentiating the effectiveness of chemotherapy by exposing cancer cells to specific cytokines such as HGF and or Il-6 within a time limited fashion, the mechanism behind this ability to sensitize cancer cells may not simply be triggering cellular proliferation. Specific cytokine exposures can transiently cause a cancer cell population to differentiate away from a more stem cell enriched, mesenchymal phenotype towards a more differentiated, epithelial cell population more sensitive to the effects of anti-cancer therapies (see Tables 1-3).
In particular, exposure to a control population of SW620 colorectal cancer cell line to HGF at a concentration of 10 ng per ml for 24 hours caused the control putative stem cell population (CD44+/CD133−) to drop from 33% at baseline (see Table 1, R7 region, CD 44 positive/CD133 negative) to 1% (see Table 2, R7, region CD 44 positive/CD133 negative). This drop was transient, as exposure to the same cell line for 48 hours of HGF at 10 ng per ml transitioned the phenotypic distribution back towards a stem cell enriched phenotype with 23% putative stem cells (see Table 3, R7 region, CD 44 positive/CD133 negative).

IL8: cytokine treatment IL8 in Tables 1-3
% Gated, R4 (CD44FITC, CD133 PE) (0 hour incubation): 48.9% | % Total, R4 (CD44FITC, CD133 PE) (0 hour incubation): 40.9% | % Gated, R5 (CD44FITC, CD133 PE) (0 hour incubation): 3.58% | % Total, R5 (CD44FITC, CD133 PE) (0 hour incubation): 2.99% | % Gated, R6 (CD44FITC, CD133 PE) (0 hour incubation): 14.3% | % Total, R6 (CD44FITC, CD133 PE) (0 hour incubation): 12% | % Gated, R7 Cancer Stem Cell (CSC) (CD44+CD133-) (0 hour incubation): 33.5% | % Total, R7 Cancer Stem Cell (CSC) (CD44+CD133-) (0 hour incubation): 28% | % Gated, R8 (CD44FITC, EpCAMefluor710) (0 hour incubation): 3.84% | % Total, R8 (CD44FITC, EpCAMefluor710) (0 hour incubation): 3.21% | % Gated, R9 EpCAM positive Cells (CD44FITC, EpCAMefluor710) (0 hour incubation): 55% | % Total, R9 EpCAM positive Cells (CD44FITC, EpCAMefluor710) (0 hour incubation): 46% | % Gated, R10 EpCAM positive Cells (CD44FITC, EpCAMefluor710) (0 hour incubation): 38.9% | % Total, R10 EpCAM positive Cells (CD44FITC, EpCAMefluor710) (0 hour incubation): 32.6% | % Gated, R11 (CD44FITC, EpCAMefluor710) (0 hour incubation): 1.92% | % Total, R11 (CD44FITC, EpCAMefluor710) (0 hour incubation): 1.6% | % Gated, R4 (CD44FITC, CD133 PE) (24 h incubation): 36.8% | % Total, R4 (CD44FITC, CD133 PE) (24 h incubation): 30% | % Gated, R5 (CD44FITC, CD133 PE) (24 h incubation): 7.29% | % Total, R5 (CD44FITC, CD133 PE) (24 h incubation): 5.93% | % Gated, R6 (CD44FITC, CD133 PE) (24 h incubation): 30.9% | % Total, R6 (CD44FITC, CD133 PE) (24 h incubation): 25.2% | % Gated, R7 Cancer Stem Cell (CSC) (CD44+CD133-) (24 h incubation): 24.5% | % Total, R7 Cancer Stem Cell (CSC) (CD44+CD133-) (24 h incubation): 19.9% | % Gated, R8 (CD44FITC, EpCAMefluor710) (24 h incubation): 1.98% | % Total, R8 (CD44FITC, EpCAMefluor710) (24 h incubation): 1.61% | % Gated, R9 EpCAM positive Cells (CD44FITC, EpCAMefluor710) (24 h incubation): 48.4% | % Total, R9 EpCAM positive Cells (CD44FITC, EpCAMefluor710) (24 h incubation): 39.4% | % Gated, R10 EpCAM positive Cells (CD44FITC, EpCAMefluor710) (24 h incubation): 50.1% | % Total, R10 EpCAM positive Cells (CD44FITC, EpCAMefluor710) (24 h incubation): 40.6% | % Gated, R11 (CD44FITC, EpCAMefluor710) (24 h incubation): 0.34% | % Total, R11 (CD44FITC, EpCAMefluor710) (24 h incubation): 0.27% | % Gated, R4 (CD44FITC, CD133 PE) (48 h incubation): 38.5% | % Total, R4 (CD44FITC, CD133 PE) (48 h incubation): 35.8% | % Gated, R5 (CD44FITC, CD133 PE) (48 h incubation): 6.8% | % Total, R5 (CD44FITC, CD133 PE) (48 h incubation): 6.32% | % Gated, R6 (CD44FITC, CD133 PE) (48 h incubation): 28.5% | % Total, R6 (CD44FITC, CD133 PE) (48 h incubation): 26.5% | % Gated, R7 Cancer Stem Cell (CSC) (CD44+CD133-) (48 h incubation): 26.8% | % Total, R7 Cancer Stem Cell (CSC) (CD44+CD133-) (48 h incubation): 24.9% | % Gated, R8 (CD44FITC, EpCAMefluor710) (48 h incubation): 23.1% | % Total, R8 (CD44FITC, EpCAMefluor710) (48 h incubation): 21.5% | % Gated, R9 EpCAM positive Cells (CD44FITC, EpCAMefluor710) (48 h incubation): 31% | % Total, R9 EpCAM positive Cells (CD44FITC, EpCAMefluor710) (48 h incubation): 28.8% | % Gated, R10 EpCAM positive Cells (CD44FITC, EpCAMefluor710) (48 h incubation): 25.4% | % Total, R10 EpCAM positive Cells (CD44FITC, EpCAMefluor710) (48 h incubation): 23.6% | % Gated, R11 (CD44FITC, EpCAMefluor710) (48 h incubation): 21.4% | % Total, R11 (CD44FITC, EpCAMefluor710) (48 h incubation): 19.9%

IL6: Interleukin 6, cytokine
% Gated, R4 (CD44FITC, CD133 PE) (0 hour incubation): 48.6% | % Total, R4 (CD44FITC, CD133 PE) (0 hour incubation): 45.1% | % Gated, R5 (CD44FITC, CD133 PE) (0 hour incubation): 3.48% | % Total, R5 (CD44FITC, CD133 PE) (0 hour incubation): 3.23% | % Gated, R6 (CD44FITC, CD133 PE) (0 hour incubation): 13.9% | % Total, R6 (CD44FITC, CD133 PE) (0 hour incubation): 12.9% | % Gated, R7 Cancer Stem Cell (CSC) (CD44+CD133-) (0 hour incubation): 34.2% | % Total, R7 Cancer Stem Cell (CSC) (CD44+CD133-) (0 hour incubation): 31.7% | % Gated, R8 (CD44FITC, EpCAMefluor710) (0 hour incubation): 5.15% | % Total, R8 (CD44FITC, EpCAMefluor710) (0 hour incubation): 4.78% | % Gated, R9 EpCAM positive Cells (CD44FITC, EpCAMefluor710) (0 hour incubation): 53% | % Total, R9 EpCAM positive Cells (CD44FITC, EpCAMefluor710) (0 hour incubation): 49.2% | % Gated, R10 EpCAM positive Cells (CD44FITC, EpCAMefluor710) (0 hour incubation): 39% | % Total, R10 EpCAM positive Cells (CD44FITC, EpCAMefluor710) (0 hour incubation): 36.1% | % Gated, R11 (CD44FITC, EpCAMefluor710) (0 hour incubation): 2.42% | % Total, R11 (CD44FITC, EpCAMefluor710) (0 hour incubation): 2.24% | % Gated, R4 (CD44FITC, CD133 PE) (24 h incubation): 41.1% | % Total, R4 (CD44FITC, CD133 PE) (24 h incubation): 33.4% | % Gated, R5 (CD44FITC, CD133 PE) (24 h incubation): 7.69% | % Total, R5 (CD44FITC, CD133 PE) (24 h incubation): 6.27% | % Gated, R6 (CD44FITC, CD133 PE) (24 h incubation): 28.8% | % Total, R6 (CD44FITC, CD133 PE) (24 h incubation): 23.4% | % Gated, R7 Cancer Stem Cell (CSC) (CD44+CD133-) (24 h incubation): 22.3% | % Total, R7 Cancer Stem Cell (CSC) (CD44+CD133-) (24 h incubation): 18.1% | % Gated, R8 (CD44FITC, EpCAMefluor710) (24 h incubation): 5.35% | % Total, R8 (CD44FITC, EpCAMefluor710) (24 h incubation): 4.36% | % Gated, R9 EpCAM positive Cells (CD44FITC, EpCAMefluor710) (24 h incubation): 48.4% | % Total, R9 EpCAM positive Cells (CD44FITC, EpCAMefluor710) (24 h incubation): 39.4% | % Gated, R10 EpCAM positive Cells (CD44FITC, EpCAMefluor710) (24 h incubation): 45.2% | % Total, R10 EpCAM positive Cells (CD44FITC, EpCAMefluor710) (24 h incubation): 36.8% | % Gated, R11 (CD44FITC, EpCAMefluor710) (24 h incubation): 1.94% | % Total, R11 (CD44FITC, EpCAMefluor710) (24 h incubation): 1.58% | % Gated, R4 (CD44FITC, CD133 PE) (48 h incubation): 37.5% | % Total, R4 (CD44FITC, CD133 PE) (48 h incubation): 33.7% | % Gated, R5 (CD44FITC, CD133 PE) (48 h incubation): 7.38% | % Total, R5 (CD44FITC, CD133 PE) (48 h incubation): 6.64% | % Gated, R6 (CD44FITC, CD133 PE) (48 h incubation): 30.7% | % Total, R6 (CD44FITC, CD133 PE) (48 h incubation): 27.6% | % Gated, R7 Cancer Stem Cell (CSC) (CD44+CD133-) (48 h incubation): 25.1% | % Total, R7 Cancer Stem Cell (CSC) (CD44+CD133-) (48 h incubation): 22.6% | % Gated, R8 (CD44FITC, EpCAMefluor710) (48 h incubation): 26% | % Total, R8 (CD44FITC, EpCAMefluor710) (48 h incubation): 23.4% | % Gated, R9 EpCAM positive Cells (CD44FITC, EpCAMefluor710) (48 h incubation): 27.6% | % Total, R9 EpCAM positive Cells (CD44FITC, EpCAMefluor710) (48 h incubation): 24.8% | % Gated, R10 EpCAM positive Cells (CD44FITC, EpCAMefluor710) (48 h incubation): 26% | % Total, R10 EpCAM positive Cells (CD44FITC, EpCAMefluor710) (48 h incubation): 23.3% | % Gated, R11 (CD44FITC, EpCAMefluor710) (48 h incubation): 21.4% | % Total, R11 (CD44FITC, EpCAMefluor710) (48 h incubation): 19.3%
